≈ marks a conversion by molar mass, not a printed value.
Test system: E. coli BW25113
Experiment: MIC, microdilution in 96-well plates
Format: cell-based
Conditions: Escherichia coli, BW25113, B: E. coli BW25113; read-out: MIC
Procedure, shortened: (§1)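 Inoculum 1:10000 (LB, log-phase subculture). Triplicate twofold dilutions plus DMSO column. 37° C., shaken, 16-18 h. Lowest non-turbid well = MIC. CLSI method.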

| Compound | MIC [µg/mL] |
| --- | --- |
| O=S(=O)(N[C@@H]1CCN(Cc2ccc(-n3ccnn3)cc2)C1)c1cccc(OC(F)(F)F)c1 [Compound 33] | > 8 |
| O=S(=O)(N[C@@H]1CCN(Cc2ccc(-c3nccs3)cc2)C1)c1cccc(OC(F)(F)F)c1 [Compound 36] | > 8 |
| O=S(=O)(N[C@@H]1CCN(Cc2ccc(SC(F)(F)F)cc2)C1)c1cccc(C(F)(F)F)c1 [Compound 52] | > 8 |
| CC(C)Oc1ccc(CN2CC[C@@H](NS(=O)(=O)c3cnccc3Cl)C2)cc1 [Compound 59] | > 8 |

Same assay, conditions: Escherichia coli, BW25113, E. coli BW25113; read-out: MIC

| Compound | MIC [µg/mL] |
| --- | --- |
| Cc1ccncc1S(=O)(=O)N[C@@H]1CCN(Cc2ccc(OC3CC3)cc2)C1 [Compound 153] | > 8 |

Test system: Edwardsiella tarda
Experiment: MIC, microdilution in 96-well plates
Format: cell-based
Conditions: not given
Procedure, shortened: as §1

| Compound | MIC [µg/mL] |
| --- | --- |
| Cc1ccncc1S(=O)(=O)N[C@@H]1CCN(Cc2ccc(OC3CC3)cc2)C1 [Compound 153] | > 8 |

Same assay, conditions: D: Edwardsiella tarda

| Compound | MIC [µg/mL] |
| --- | --- |
| O=S(=O)(N[C@@H]1CCN(Cc2ccc(-n3ccnn3)cc2)C1)c1cccc(OC(F)(F)F)c1 [Compound 33] | > 8 |
| O=S(=O)(N[C@@H]1CCN(Cc2ccc(-c3nccs3)cc2)C1)c1cccc(OC(F)(F)F)c1 [Compound 36] | > 8 |
| O=S(=O)(N[C@@H]1CCN(Cc2ccc(SC(F)(F)F)cc2)C1)c1cccc(C(F)(F)F)c1 [Compound 52] | > 8 |
| CC(C)Oc1ccc(CN2CC[C@@H](NS(=O)(=O)c3cnccc3Cl)C2)cc1 [Compound 59] | > 8 |

Test system: Staphylococcus aureus subsp. aureus
Experiment: MIC, 20-strain panel
Format: cell-based
Conditions: H: Staphylococcus aureus subsp. aureus, read-out: MIC
Procedure, shortened: as §1

| Compound | MIC [µg/mL] |
| --- | --- |
| O=S(=O)(N[C@@H]1CCN(Cc2ccc(-n3ccnn3)cc2)C1)c1cccc(OC(F)(F)F)c1 [Compound 33] | > 8 |
| O=S(=O)(N[C@@H]1CCN(Cc2ccc(-c3nccs3)cc2)C1)c1cccc(OC(F)(F)F)c1 [Compound 36] | > 8 |
| O=S(=O)(N[C@@H]1CCN(Cc2ccc(SC(F)(F)F)cc2)C1)c1cccc(C(F)(F)F)c1 [Compound 52] | > 8 |
| CC(C)Oc1ccc(CN2CC[C@@H](NS(=O)(=O)c3cnccc3Cl)C2)cc1 [Compound 59] | > 8 |

Same assay, conditions: Staphylococcus aureus subsp. aureus, read-out: MIC

| Compound | MIC [µg/mL] |
| --- | --- |
| Cc1ccncc1S(=O)(=O)N[C@@H]1CCN(Cc2ccc(OC3CC3)cc2)C1 [Compound 153] | > 8 |

Test system: E. coli MG1655
Experiment: MIC, 20-strain panel
Format: cell-based
Conditions: Escherichia coli, MG1655, A: E. coli MG1655; read-out: MIC
Procedure, shortened: as §1

| Compound | MIC [µg/mL] |
| --- | --- |
| O=S(=O)(N[C@@H]1CCN(Cc2ccc(-n3ccnn3)cc2)C1)c1cccc(OC(F)(F)F)c1 [Compound 33] | > 8 |
| O=S(=O)(N[C@@H]1CCN(Cc2ccc(-c3nccs3)cc2)C1)c1cccc(OC(F)(F)F)c1 [Compound 36] | > 8 |
| O=S(=O)(N[C@@H]1CCN(Cc2ccc(SC(F)(F)F)cc2)C1)c1cccc(C(F)(F)F)c1 [Compound 52] | > 8 |
| CC(C)Oc1ccc(CN2CC[C@@H](NS(=O)(=O)c3cnccc3Cl)C2)cc1 [Compound 59] | > 8 |

Same assay, conditions: Escherichia coli, MG1655, E. coli MG1655; read-out: MIC

| Compound | MIC [µg/mL] |
| --- | --- |
| Cc1ccncc1S(=O)(=O)N[C@@H]1CCN(Cc2ccc(OC3CC3)cc2)C1 [Compound 153] | > 8 |

Test system: Klebsiella pneumoniae subsp. pneumoniae
Experiment: MIC, 20-strain panel
Format: cell-based
Conditions: E: Klebsiella pneumoniae subsp. pneumoniae
Procedure, shortened: as §1

| Compound | MIC [µg/mL] |
| --- | --- |
| O=S(=O)(N[C@@H]1CCN(Cc2ccc(-n3ccnn3)cc2)C1)c1cccc(OC(F)(F)F)c1 [Compound 33] | > 8 |
| O=S(=O)(N[C@@H]1CCN(Cc2ccc(-c3nccs3)cc2)C1)c1cccc(OC(F)(F)F)c1 [Compound 36] | > 8 |
| O=S(=O)(N[C@@H]1CCN(Cc2ccc(SC(F)(F)F)cc2)C1)c1cccc(C(F)(F)F)c1 [Compound 52] | > 8 |
| CC(C)Oc1ccc(CN2CC[C@@H](NS(=O)(=O)c3cnccc3Cl)C2)cc1 [Compound 59] | > 8 |

Same assay, conditions: Klebsiella pneumoniae subsp. pneumoniae

| Compound | MIC [µg/mL] |
| --- | --- |
| Cc1ccncc1S(=O)(=O)N[C@@H]1CCN(Cc2ccc(OC3CC3)cc2)C1 [Compound 153] | > 8 |

Test system: Shigella flexneri
Experiment: MIC, 20-strain panel
Format: cell-based
Conditions: not given
Procedure, shortened: as §1

| Compound | MIC [µg/mL] |
| --- | --- |
| Cc1ccncc1S(=O)(=O)N[C@@H]1CCN(Cc2ccc(OC3CC3)cc2)C1 [Compound 153] | > 8 |

Same assay, conditions: G: Shigella flexneri

| Compound | MIC [µg/mL] |
| --- | --- |
| O=S(=O)(N[C@@H]1CCN(Cc2ccc(-n3ccnn3)cc2)C1)c1cccc(OC(F)(F)F)c1 [Compound 33] | > 8 |
| O=S(=O)(N[C@@H]1CCN(Cc2ccc(-c3nccs3)cc2)C1)c1cccc(OC(F)(F)F)c1 [Compound 36] | > 8 |
| O=S(=O)(N[C@@H]1CCN(Cc2ccc(SC(F)(F)F)cc2)C1)c1cccc(C(F)(F)F)c1 [Compound 52] | > 8 |
| CC(C)Oc1ccc(CN2CC[C@@H](NS(=O)(=O)c3cnccc3Cl)C2)cc1 [Compound 59] | > 8 |

Test system: E. coli JW5503 (deltolC)
Experiment: MIC, 20-strain panel
Format: cell-based
Conditions: Escherichia coli, C: E. coli JW5503 (deltolC)
Procedure, shortened: as §1

| Compound | MIC [µg/mL] |
| --- | --- |
| O=S(=O)(N[C@@H]1CCN(Cc2ccc(-n3ccnn3)cc2)C1)c1cccc(OC(F)(F)F)c1 [Compound 33] | > 8 |
| O=S(=O)(N[C@@H]1CCN(Cc2ccc(-c3nccs3)cc2)C1)c1cccc(OC(F)(F)F)c1 [Compound 36] | 2 (≈ 4.14 µM) |
| O=S(=O)(N[C@@H]1CCN(Cc2ccc(SC(F)(F)F)cc2)C1)c1cccc(C(F)(F)F)c1 [Compound 52] | 4 (≈ 8.26 µM) |
| CC(C)Oc1ccc(CN2CC[C@@H](NS(=O)(=O)c3cnccc3Cl)C2)cc1 [Compound 59] | > 8 |

Same assay, conditions: Escherichia coli, E. coli JW5503 (deltolC)

| Compound | MIC [µg/mL] |
| --- | --- |
| Cc1ccncc1S(=O)(=O)N[C@@H]1CCN(Cc2ccc(OC3CC3)cc2)C1 [Compound 153] | 8 (≈ 20.6 µM) |

Test system: Streptococcus pyogenes
Experiment: MIC, 20-strain panel
Format: cell-based
Conditions: not given
Procedure, shortened: as §1

| Compound | MIC [µg/mL] |
| --- | --- |
| Cc1ccncc1S(=O)(=O)N[C@@H]1CCN(Cc2ccc(OC3CC3)cc2)C1 [Compound 153] | > 8 |
| O=S(=O)(N[C@@H]1CCN(Cc2ccc(-n3ccnn3)cc2)C1)c1cccc(OC(F)(F)F)c1 [Compound 33] | > 8 |
| O=S(=O)(N[C@@H]1CCN(Cc2ccc(-c3nccs3)cc2)C1)c1cccc(OC(F)(F)F)c1 [Compound 36] | > 8 |
| O=S(=O)(N[C@@H]1CCN(Cc2ccc(SC(F)(F)F)cc2)C1)c1cccc(C(F)(F)F)c1 [Compound 52] | > 8 |
| CC(C)Oc1ccc(CN2CC[C@@H](NS(=O)(=O)c3cnccc3Cl)C2)cc1 [Compound 59] | > 8 |

Test system: Staphylococcus saprophyticus subsp. saprophyticus
Experiment: MIC, 20-strain panel
Format: cell-based
Conditions: not given
Procedure, shortened: as §1

| Compound | MIC [µg/mL] |
| --- | --- |
| Cc1ccncc1S(=O)(=O)N[C@@H]1CCN(Cc2ccc(OC3CC3)cc2)C1 [Compound 153] | > 8 |
| O=S(=O)(N[C@@H]1CCN(Cc2ccc(-n3ccnn3)cc2)C1)c1cccc(OC(F)(F)F)c1 [Compound 33] | > 8 |
| O=S(=O)(N[C@@H]1CCN(Cc2ccc(-c3nccs3)cc2)C1)c1cccc(OC(F)(F)F)c1 [Compound 36] | > 8 |
| O=S(=O)(N[C@@H]1CCN(Cc2ccc(SC(F)(F)F)cc2)C1)c1cccc(C(F)(F)F)c1 [Compound 52] | > 8 |
| CC(C)Oc1ccc(CN2CC[C@@H](NS(=O)(=O)c3cnccc3Cl)C2)cc1 [Compound 59] | > 8 |

Test system: Staphylococcus epidermidis
Experiment: MIC, 20-strain panel
Format: cell-based
Conditions: not given
Procedure, shortened: as §1

| Compound | MIC [µg/mL] |
| --- | --- |
| Cc1ccncc1S(=O)(=O)N[C@@H]1CCN(Cc2ccc(OC3CC3)cc2)C1 [Compound 153] | > 8 |
| O=S(=O)(N[C@@H]1CCN(Cc2ccc(-n3ccnn3)cc2)C1)c1cccc(OC(F)(F)F)c1 [Compound 33] | > 8 |
| O=S(=O)(N[C@@H]1CCN(Cc2ccc(-c3nccs3)cc2)C1)c1cccc(OC(F)(F)F)c1 [Compound 36] | > 8 |
| O=S(=O)(N[C@@H]1CCN(Cc2ccc(SC(F)(F)F)cc2)C1)c1cccc(C(F)(F)F)c1 [Compound 52] | > 8 |
| CC(C)Oc1ccc(CN2CC[C@@H](NS(=O)(=O)c3cnccc3Cl)C2)cc1 [Compound 59] | > 8 |

Test system: Streptococcus agalactiae
Experiment: MIC, 20-strain panel
Format: cell-based
Conditions: not given
Procedure, shortened: as §1

| Compound | MIC [µg/mL] |
| --- | --- |
| Cc1ccncc1S(=O)(=O)N[C@@H]1CCN(Cc2ccc(OC3CC3)cc2)C1 [Compound 153] | > 8 |
| O=S(=O)(N[C@@H]1CCN(Cc2ccc(-n3ccnn3)cc2)C1)c1cccc(OC(F)(F)F)c1 [Compound 33] | > 8 |
| O=S(=O)(N[C@@H]1CCN(Cc2ccc(-c3nccs3)cc2)C1)c1cccc(OC(F)(F)F)c1 [Compound 36] | > 8 |
| O=S(=O)(N[C@@H]1CCN(Cc2ccc(SC(F)(F)F)cc2)C1)c1cccc(C(F)(F)F)c1 [Compound 52] | > 8 |
| CC(C)Oc1ccc(CN2CC[C@@H](NS(=O)(=O)c3cnccc3Cl)C2)cc1 [Compound 59] | > 8 |

Test system: Salmonella enterica subsp. enterica typhimurium
Experiment: MIC, 20-strain panel
Format: cell-based
Conditions: F: Salmonella enterica subsp. enterica Typhimurium
Procedure, shortened: as §1

| Compound | MIC [µg/mL] |
| --- | --- |
| O=S(=O)(N[C@@H]1CCN(Cc2ccc(-n3ccnn3)cc2)C1)c1cccc(OC(F)(F)F)c1 [Compound 33] | > 8 |
| O=S(=O)(N[C@@H]1CCN(Cc2ccc(-c3nccs3)cc2)C1)c1cccc(OC(F)(F)F)c1 [Compound 36] | > 8 |
| O=S(=O)(N[C@@H]1CCN(Cc2ccc(SC(F)(F)F)cc2)C1)c1cccc(C(F)(F)F)c1 [Compound 52] | > 8 |
| CC(C)Oc1ccc(CN2CC[C@@H](NS(=O)(=O)c3cnccc3Cl)C2)cc1 [Compound 59] | > 8 |

Same assay, conditions: Salmonella enterica subsp. enterica Typhimurium

| Compound | MIC [µg/mL] |
| --- | --- |
| Cc1ccncc1S(=O)(=O)N[C@@H]1CCN(Cc2ccc(OC3CC3)cc2)C1 [Compound 153] | > 8 |

Source: patent US10253039B2, “Inhibitors of bacterial DNA gyrase with efficacy against gram-negative bacteria” (priority 2014, dated 2019)
